This note sets out measurements from patent US20240139183A1, “COMPOUND FOR SUPPRESSING NONSENSE-MEDIATED MRNA DECAY” (RiboTech Co., Ltd., priority 2021, published 2024).

The subject of assay [1] is NMD (HeLa cell line constitutively expressing the NMD-target mRNA). Nature of the assay: NMD inhibitory effect in HeLa reporter cell line: RLuc mRNA (real-time PCR) and protein (dual luciferase assay). It counts as cell-based. The following applies: 5 μM, 12 hours, FIG. 4; for amount of RLuc mRNA: real-time PCR. The source says:
In Example 1, a beta-globin normal gene or the gene including a premature termination codon (PTC) found in genetic diseases was inserted into the downstream of a chemiluminescence gene, Renilla luciferase (RLuc). Normal gene-inserted mRNA was not targeted by NMD, whereas when a gene having PTC was inserted, the mRNA became a NMD target, and as a result, mRNA was quickly broken down and the expression level of RLuc was reduced.
Accordingly, a HeLa cell line constitutively expressing the NMD-target mRNA was prepared, and simultaneously, the cell line was designed to constitutively express a firefly luciferase (FLuc) gene, which was not a target of NMD, and a total of three cell lines NMD20, NMD4, and NMD5 with the same composition were obtained. In order to confirm whether the HeLa cell line prepared above was suitable for measuring NMD efficiency, the following two experiments were performed.
The NMD inhibitory effect of Compounds 1 to 3 was confirmed using the HeLa cell line prepared in Example 1. After treating the cells with Compounds 1 to 3 at 5 μM for 12 hours, respectively, total RNA and protein were purified from the cells, respectively. Then, the amounts of RNA and protein were quantified respectively through real-time PCR and dual luciferase assay methods. The results were illustrated in FIG. 4.
For orientation: In qPCR the cycle at which signal appears reflects the starting amount.

A further assay relates to UPF1. In words: Western blotting of UPF1 phosphorylation in treated cells. Format: cell-based. The following applies: 5 μM, 12 hours, FIG. 5. How it is done: Phosphorylation of UPF1 was known to be one of the most important factors in NMD. In Example 3.1, the effect of the three types of compounds of the present invention on phosphorylation of UPF1 was examined. The cells were treated with each compound at 5 μM for 12 hours, and then total proteins were purified. Then, western blotting was performed using each antibody capable of recognizing Upf1 or Upf1 phosphorylated at a specific site.
(In general: In western blotting, separated proteins are transferred to a membrane and probed.)

For assay [2], the target named is T1, binding between UPF1 and UPF2 (Homo sapiens, UniProt Q92900).
T1 construct: expressed in transfected cells
T1 sequence (Q92900 1-1129): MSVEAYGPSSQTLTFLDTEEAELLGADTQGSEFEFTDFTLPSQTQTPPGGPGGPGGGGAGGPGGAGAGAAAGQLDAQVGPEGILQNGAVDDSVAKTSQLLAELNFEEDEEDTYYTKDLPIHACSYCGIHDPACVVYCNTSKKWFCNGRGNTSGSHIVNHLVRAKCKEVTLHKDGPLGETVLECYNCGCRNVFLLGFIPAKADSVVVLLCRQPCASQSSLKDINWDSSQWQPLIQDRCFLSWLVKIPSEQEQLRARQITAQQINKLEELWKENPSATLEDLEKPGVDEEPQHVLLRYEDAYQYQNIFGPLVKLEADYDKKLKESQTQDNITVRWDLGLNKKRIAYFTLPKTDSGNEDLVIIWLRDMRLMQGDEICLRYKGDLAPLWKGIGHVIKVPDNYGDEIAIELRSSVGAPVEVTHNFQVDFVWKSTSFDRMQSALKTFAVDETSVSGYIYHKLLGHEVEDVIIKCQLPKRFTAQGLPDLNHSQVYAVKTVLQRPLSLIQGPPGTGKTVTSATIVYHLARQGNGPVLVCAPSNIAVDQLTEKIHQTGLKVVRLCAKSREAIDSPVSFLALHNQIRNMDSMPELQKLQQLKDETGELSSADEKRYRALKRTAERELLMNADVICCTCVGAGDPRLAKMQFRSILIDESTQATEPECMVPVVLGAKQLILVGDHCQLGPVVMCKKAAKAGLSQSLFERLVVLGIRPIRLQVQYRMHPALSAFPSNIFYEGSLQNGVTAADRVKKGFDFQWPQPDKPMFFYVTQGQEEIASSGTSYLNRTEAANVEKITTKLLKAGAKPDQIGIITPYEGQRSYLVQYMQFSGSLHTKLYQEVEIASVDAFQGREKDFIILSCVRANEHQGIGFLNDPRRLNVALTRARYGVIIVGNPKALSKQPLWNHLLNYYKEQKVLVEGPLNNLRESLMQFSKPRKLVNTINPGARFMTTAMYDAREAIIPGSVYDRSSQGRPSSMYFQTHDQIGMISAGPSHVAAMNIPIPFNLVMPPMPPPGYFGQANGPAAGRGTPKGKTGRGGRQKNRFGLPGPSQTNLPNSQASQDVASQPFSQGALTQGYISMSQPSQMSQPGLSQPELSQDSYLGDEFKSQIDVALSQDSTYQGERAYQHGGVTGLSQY
Nature of the assay: FLAG-UPF1 immunoprecipitation / western blotting for UPF1-UPF2 binding. It counts as cell-based. The following applies: 5 μM, 1 hour; FLAG-UPF1 overexpressed; immunoprecipitation with FLAG antibody; FIG. 6. The method, then: In the cell line, DNA expressing FLAG-UPF1 was transiently overexpressed.
After treating the cell line with each compound at 5μM for 1 hour, a cell extract was obtained. Immunoprecipitation was performed on the cell extract obtained using a FLAG antibody.
Proteins before and after immunoprecipitation were analyzed by western blotting.

The test system of assay [3] is NMD steps (Upf1, Upf2, Upf3X tethered to reporter β-6bs mRNA). Nature of the assay: Tethering assay: MS2-Upf1, MS2-Upf2, MS2-Upf3 tethered to 3' UTR of reporter mRNA in HeLa cell line, real-time PCR. Format: cell-based. The following applies: 5 μM, 6 hours or 12 hours, FIGS. 8 and 9. How it is done:
An NMD-based search system capable of artificially reducing the amount of reporter mRNA was constructed, after artificially tethering proteins Upf1, Upf2, and Upf3X acting in each step of NMD to 3′ UTR of reporter mRNA (FIG. 7). Using this method, it was attempted to verify which step of NMD the three types of compounds acted on.
After treating the cell line with each compound at 5 μM for 6 hours or 12 hours, a cell extract was obtained. Thereafter, the relative amount of reporter mRNA was measured through real-time PCR.

In assay [4] the test system is dystrophin protein in cells derived from patients with DMD. In words: Dystrophin protein by Western blotting in DMD patient-derived cell line. It counts as cell-based, human. The following applies: 5 μM, 12 hours, FIG. 11.

Regarding `Cn1c(=O)n(-c2ccc(C(C)(C)C#N)cc2)c2c3cc(-c4cnc5ccccc5c4)ccc3ncc21` [Compound 2, 2-methyl-2-{4-[3-methyl-2-oxo-8-(quinolin-3-yl)-2,3-dihydro-1H-imidazo[4,5-c]quinolin-1-yl]phenyl}propanenitrile], the “amount of RLuc mRNA” value in assay [1] is given as “significantly increased the amount of mRNA”. In the assay with UPF1, the “effect on phosphorylation of UPF1” value is listed as “significantly inhibited phosphorylation of UPF1”. Moreover, in assay [2], the “effect on UPF1-UPF2 binding” value is “did not significantly affect the UPF1-UPF2 binding”. Also, the “step of NMD targeted (relative amount of reporter mRNA)” value in assay [3] was “did not target the UPF1-UPF2 and UPF2-UPF3 steps”.
With `COc1ncc(-c2ccc3nccc(-c4ccnnc4)c3c2)cc1NS(=O)(=O)c1ccc(F)cc1F` [Compound 1, 2,4-Difluoro-N-{2-(methyloxy)-5-[4-(4-pyridazinyl)-6-quinolinyl]-3-pyridinyl}benzenesulfonamide], in assay [1] (dual luciferase assay), the “protein translation of RLuc” value is “increased protein translation of RLuc”. Also, the “effect on phosphorylation of UPF1” value with UPF1 is recorded as “did not significantly affect phosphorylation of UPF1”. Further, the “effect on UPF1-UPF2 binding” value in assay [2] is listed as “significantly inhibited the UPF1-UPF2 binding”. The “step of NMD targeted (relative amount of reporter mRNA)” value in assay [3] is on record as “targeted a UPF1-UPF2 step”. The “amount of dystrophin protein” value in assay [4] is “increased”.
`COc1cc2ncnc(-n3nc(-c4ccccn4)nc3N)c2cc1OC` [Compound 3, 1-(6,7-Dimethoxy-4-quinazolinyl)-3-(2-pyridinyl)-1H-1,2,4-Triazol-5-amine]: the “amount of RLuc mRNA” value in assay [1] is listed as “significantly increased the amount of mRNA”. In addition, the “effect on phosphorylation of UPF1” value in the assay on UPF1 was “did not significantly affect phosphorylation of UPF1”. Further, the “effect on UPF1-UPF2 binding” value in assay [2] is reported as “did not significantly affect the UPF1-UPF2 binding”. In addition, in assay [3], the “step of NMD targeted (relative amount of reporter mRNA)” value is “did not target the UPF1-UPF2 and UPF2-UPF3 steps”.
